According to patent US10653710B2, “Combination therapy for treating malignancies” (Agios Pharmaceuticals, Inc., priority 2015, dated 2020):
Values after ≈ are worked out from the molar mass of the structure shown. Read-outs that look alike come from different tables or passages of the source.

What was measured:
TF1-IDH1^R132H cells [1] = assay: EPO differentiation assay, cell pellet color evaluation (hemoglobinization assay); format: cell-based; conditions: concurrent schedule; COMPOUND 2 0.2 and 1.0 μM; AZA up to 1 uM
Text: (§1) EPO differentiation assay in TF1-IDH1^R132H cells. […] Endpoints assessed assays were: cell pellet color evaluation (hemoglobinization assay); HBG and KLF1 RNA by RT-qPCR; CD235a-positive cell populations by flow cytometry (differentiation markers); and Growth and apoptosis by IncuCyte Zoom real-time imaging.

TF1-IDH1^R132H cells [2] = assay: HBG and KLF1 RNA by RT-qPCR in EPO differentiation assay; format: cell-based; conditions: concurrent schedule; for increase in HBG gene expression: COMPOUND 2 0.2 μM, AZA 1.0 μM, single agents or combined
Method: EPO differentiation assay in TF1-IDH1^R132H cells. […] Cells were treated with vehicle, AZA alone, COMPOUND 2 alone, or the combination of AZA+COMPOUND 2. In the sequential schedule, cells were pre-treated with AZA for three days before addition of COMPOUND 2. In the concurrent schedule, cells were co-treated with AZA and COMPOUND 2 throughout the assay. Endpoints assessed assays were: cell pellet color evaluation (hemoglobinization assay); HBG and KLF1 RNA by RT-qPCR; CD235a-positive cell populations by flow cytometry (differentiation markers); and Growth and apoptosis by IncuCyte Zoom real-time imaging.
Cells were treated with vehicle, AZA alone, COMPOUND 2 alone, or the combination of AZA+COMPOUND 2. In the sequential schedule, cells were pre-treated with AZA for three days before addition of COMPOUND 2. In the concurrent schedule, cells were co-treated with AZA and COMPOUND 2 throughout the assay.

TF-1-IDH1^R132H cells = assay: growth and apoptosis by IncuCyte Zoom real-time imaging; format: cell-based; conditions: AZA 1 μM; for cell growth compared to the DMSO control: COMPOUND 2 0.1, 0.3 or 1.0 μM; for induction of apoptosis: late time points (>60 hrs), combination with 0.1 and 0.3 μM COMPOUND 2
Method: as §1
In order to track cell growth and death in real-time, a real-time analysis was performed using IncuCyte Zoom (FIG. 4).

[3] = cited from earlier work
TF1-IDH1^R132H cells [4] = assay: CD235a-positive cell populations by flow cytometry in EPO differentiation assay; format: cell-based; conditions: concurrent schedule
Text: as §1

[5] = solubility in fasted state simulated intestinal fluid (FASSIF); format: physicochemical; conditions: pH 6.1, fassif, thermodynamic from solid, pH of 6.1 at 4 hours
Method: In comparison, amorphous spray-dried dispersions have a solubility of about 0.05 mg/mL to about 0.50 mg/mL in FASSIF at 3 hours.

| SMILES | hemoglobinization (red color of cell pellets) (TF1-IDH1^R132H cells [1]) | increase in HBG gene expression (TF1-IDH1^R132H cells [2]) [fold] | cell growth compared to the DMSO control (TF-1-IDH1^R132H cells) | induction of apoptosis (TF-1-IDH1^R132H cells) | solubility ([3]; in dimethylsulfoxide (DMSO)) | other results |
| --- | --- | --- | --- | --- | --- | --- |
| Nc1ncn([C@@H]2O[C@H](CO)[C@@H](O)[C@H]2O)c(=O)n1 [AZA, 4-amino-1-β-D-ribofuranozyl-s-triazin-2(1H)-one] | little or no effect on cell pellet color | 1 | slowed growth | increased apoptosis above the DMSO control | soluble | solubility ([3]; in acetone, ethanol and methyl ketone): insoluble; solubility ([3]; in ethanol/water (50/50), propylene glycol and polyethylene glycol): slightly soluble; solubility ([3]; in water, water-saturated octanol, 5% dextrose in water, N-methyl-2-pyrrolidone, normal saline and 5% Tween 80 in water): sparingly soluble |
| N#Cc1ccnc(N2C(=O)CC[C@H]2C(=O)N(c2cncc(F)c2)[C@H](C(=O)NC2CC(F)(F)C2)c2ccccc2Cl)c1 [COMPOUND 2, (S)-N-((S)-1-(2-chlorophenyl)-2-((3,3-difluorocyclobutyl)amino)-2-oxoethyl)-1-(4-cyanopyridin-2-yl)-N-(5-fluoropyridin-3-yl)-5-oxopyrrolidine-2-carboxamide] | increased hemoglobin production in a dose-dependent manner | 25 | slightly promoted cell growth | no effect on induction of apoptosis |  | erythroid differentiation marker CD235a (Glycophorin A) expression (TF1-IDH1^R132H cells [4]): increased erythroid differentiation marker CD235a; RNA expression of differentiation marker KLF1 (TF1-IDH1^R132H cells [2]): Dose-dependent increases; RNA expression of differentiation marker HBG (TF1-IDH1^R132H cells [2]; combination with COMPOUND 2 0.2 μM): dose-dependent increases |
| Nc1ncn([C@H]2C[C@H](O)[C@@H](CO)O2)c(=O)n1 [Decitabine, 4-amino-1-(2-deoxy-β-D-erythro-pentofuranosyl)-1,3,5-triazin-2(1H)one] |  |  |  |  | soluble | solubility ([3]; in ethanol/water (50/50), methanol/water (50/50) and methanol): slightly soluble; solubility ([3]; in water): sparingly soluble |
| N#Cc1ccnc(N2C(=O)CC[C@H]2C(=O)N(c2cncc(F)c2)[C@H](C(=O)NC2CC(F)(F)C2)c2ccccc2Cl)c1 [Form 2, (S)-N-((S)-1-(2-chlorophenyl)-2-((3,3-difluorocyclobutyl)amino)-2-oxoethyl)-1-(4-cyanopyridin-2-yl)-N-(5-fluoropyridin-3-yl)-5-oxopyrrolidine-2-carboxamide] |  |  |  |  |  | solubility at 4 h [5]: ~18 µg/mL (≈ 30.9 µM) |
